# Reference: patent US9409876B2, “Bradykinin receptor antagonists and pharmaceutical compositions containing them” (DOMPE' FARMACEUTICI S.P.A., priority 2013, dated 2016)
# Target: T1, BKB1 receptors (Homo sapiens, UniProt P46663)
# T1 construct: Human (IMR-90) lung fibroblast cells expressing native BKB1 receptors; endogenous in cells; host or cells: IMR-90 human lung fibroblasts, treated with human IL-1 to up-regulate BKB1
# T1 sequence (P46663 1-353): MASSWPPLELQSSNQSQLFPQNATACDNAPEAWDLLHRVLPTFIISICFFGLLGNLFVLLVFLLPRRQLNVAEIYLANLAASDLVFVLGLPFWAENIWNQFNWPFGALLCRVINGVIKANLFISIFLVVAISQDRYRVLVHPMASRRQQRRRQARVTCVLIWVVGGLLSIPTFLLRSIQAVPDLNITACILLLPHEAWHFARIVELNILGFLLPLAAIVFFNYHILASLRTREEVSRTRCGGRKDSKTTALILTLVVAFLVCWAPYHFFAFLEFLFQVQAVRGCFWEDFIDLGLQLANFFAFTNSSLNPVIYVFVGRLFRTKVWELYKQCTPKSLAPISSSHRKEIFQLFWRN
# Assay: Calcium Mobilization Assay (FLIPR), IMR-90 cells, BKB1
# Assay type: cell-based
# Conditions: IL-1 induced IMR-90 cells, agonist desArg10-kallidin (DAKD)
# Method: Calcium Mobilization Assay (FLIPR)—Human (IMR-90) lung fibroblast cells expressing native BKB1 receptors were harvested by trypsinization and seeded into black wall/clear bottom 96-well plates (Costar 3904; Corning Life Sciences, Acton, Mass.) at approximately 13,000 cells/well. After 1 day incubation, cells were treated with human IL-1 (0.35 ng/ml) in 10% FBS/MEM for 2 h to up-regulate BKB1 receptors. Induced cells were loaded with fluorescent calcium indicator by incubation with 2.3 µM Fluo-4/acetoxymethyl ester (Invitrogen) at 37° C. for 1.5 h in the presence of an anion transport inhibitor (2.5 mM probenecid in 1% FBS/MEM). Extracellular dye was removed by washing with assay buffer (2.5 mM probenecid, 0.1% BSA in 20 mM HEPES/HBSS without bicarbonate or phenol red, pH 7.5) and cell plates were kept in the dark until used. Test compounds were assayed at eight concentrations in triplicate.
row,IC50,SMILES
1,1900 nM,"COc1ccccc1CN(C(=O)Cn1nnc2ccccc21)C(C(=O)NCC1CCCO1)c1ccc(C)cc1 (centres unmarked) [1 (mix), 2-(1H-benzotriazol-1-yl)-N-(2-methoxybenzyl)-N-{1-(4-methylphenyl)-2-oxo-2-[(tetrahydrofuran-2-ylmethyl)amino]ethyl}acetamide]"
2,418 nM,COc1ccccc1CN(C(=O)CC(C)C)C(C(=O)NCC1CCCO1)c1ccc(C)cc1 (centres unmarked) [8 (mix)]
3,300 nM,COc1ccccc1CN(C(=O)Cc1ccccc1C)C(C(=O)NCC1CCCO1)c1ccc(C)cc1 (centres unmarked) [9 (mix)]
4,300 nM,"COc1ccccc1CN(C(=O)CN1C(=O)c2ccccc2C1=O)C(C(=O)NCC1CCCO1)c1ccc(C)cc1 (centres unmarked) [10 (mix), 2-(1,3-dioxoisoindolin-2-yl)-N-(2-methoxybenzyl)-N-{1-(4-methylphenyl)-2-oxo-2-[(tetrahydrofuran-2-ylmethyl)amino]-ethyl}acetamide]"
5,98 nM,"COc1ccccc1CN(C(=O)Cc1c[nH]cn1)C(C(=O)NCC1CCCO1)c1ccc(C)cc1 (centres unmarked) [12 (mix), 2-(1H-imidazol-4-yl)-N-(2-methoxybenzyl)-N-{1-(4-methylphenyl)-2-oxo-2-[(tetrahydrofuran-2-ylmethyl)amino]ethyl}acetamide]"
6,300 nM,COc1ccccc1CC(=O)N(Cc1ccccc1OC)C(C(=O)NCC1CCCO1)c1ccc(C)cc1 (centres unmarked) [13 (mix)]
7,300 nM,"CCCCC(=O)N(Cc1ccccc1OC)C(C(=O)NCC1CCCO1)c1ccc(C)cc1 (centres unmarked) [14 (mix), N-(2-methoxybenzyl)-N-{1-(4-methylphenyl)-2-oxo-2-[(tetrahydrofuran-2-ylmethyl)amino]ethyl}pentanamide]"
8,300 nM,"COc1ccccc1CN(C(=O)C1CCCC1)C(C(=O)NCC1CCCO1)c1ccc(C)cc1 (centres unmarked) [15 (mix), N-(2-methoxybenzyl)-N-{1-(4-methylphenyl)-2-oxo-2-[(tetrahydrofuran-2-ylmethyl)amino]ethyl}cyclopentanecarboxamide]"
9,1000 nM,"COc1ccccc1CN(C(=O)c1ccc(O)cc1)C(C(=O)NCC1CCCO1)c1ccc(C)cc1 (centres unmarked) [16 (mix), 4-hydroxy-N-(2-methoxybenzyl)-N-{1-(4-methylphenyl)-2-oxo-2-[(tetrahydrofuran-2-ylmethyl)amino]ethyl}benzamide]"
10,1200 nM,"COc1ccccc1CN(C(=O)CCC(C)=O)C(C(=O)NCC1CCCO1)c1ccc(C)cc1 (centres unmarked) [17 (mix), 4-oxo-N-(2-methoxybenzyl)-N-{1-(4-methylphenyl)-2-oxo-2-[(tetrahydrofuran-2-ylmethyl)amino]ethyl}pentanamide]"
11,300 nM,COc1ccccc1CN(C(=O)Cc1cccc(C)c1)C(C(=O)NCC1CCCO1)c1ccc(C)cc1 (centres unmarked) [18 (mix)]
12,1400 nM,COc1ccccc1CN(C(=O)Cc1ccc(C)cc1)C(C(=O)NCC1CCCO1)c1ccc(C)cc1 (centres unmarked) [19 (mix)]
13,6100 nM,"COc1ccccc1CN(C(=O)c1ccc(C)cc1)C(C(=O)NCC1CCCO1)c1ccc(C)cc1 (centres unmarked) [20 (mix), 4-methyl-N-(2-methoxybenzyl)-N-{1-(4-methylphenyl)-2-oxo-2-[(tetrahydrofuran-2-ylmethyl)amino]ethyl}benzamide]"
14,3500 nM,COc1ccccc1CN(C(=O)Cc1ccc(F)cc1)C(C(=O)NCC1CCCO1)c1ccc(C)cc1 (centres unmarked) [21 (mix)]
15,8700 nM,"COc1ccccc1CN(C(=O)c1ccc(F)cc1)C(C(=O)NCC1CCCO1)c1ccc(C)cc1 (centres unmarked) [22 (mix), 4-fluoro-N-(2-methoxybenzyl)-N-{1-(4-methylphenyl)-2-oxo-2-[(tetrahydrofuran-2-ylmethyl)amino]ethyl}benzamide]"
16,8400 nM,"COc1ccccc1CN(C(=O)C1CCC(F)(F)CC1)C(C(=O)NCC1CCCO1)c1ccc(C)cc1 (centres unmarked) [23 (mix), 4,4-difluoro-N-(2-methoxybenzyl)-N-{1-(4-methylphenyl)-2-oxo-2-[(tetrahydrofuran-2-ylmethyl)amino]ethyl}cyclohexanecarboxamide]"

row,IC50,SMILES
1,13200 nM,"CCC(=O)N(Cc1ccccc1OC)C(C(=O)NCC1CCCO1)c1ccc(C)cc1 (centres unmarked) [24 (mix), N-(2-methoxybenzyl)-N-{1-(4-methylphenyl)-2-oxo-2-[(tetrahydrofuran-2-ylmethyl)amino]ethyl}propanamide]"
2,15700 nM,"COc1ccccc1CN(C(=O)C1CCC1)C(C(=O)NCC1CCCO1)c1ccc(C)cc1 (centres unmarked) [25 (mix), N-(2-methoxybenzyl)-N-{1-(4-methylphenyl)-2-oxo-2-[(tetrahydrofuran-2-ylmethyl)amino]ethyl}cyclobutanecarboxamide]"
3,14400 nM,"COc1ccccc1CN(C(=O)c1ccccc1[N+](=O)[O-])C(C(=O)NCC1CCCO1)c1ccc(C)cc1 (centres unmarked) [26 (mix), N-(2-methoxybenzyl)-2-nitro-N-{1-(4-methylphenyl)-2-oxo-2-[(tetrahydrofuran-2-ylmethyl)amino]ethyl}benzamide]"
4,15000 nM,"COc1ccccc1CN(C(=O)C1CC1)C(C(=O)NCC1CCCO1)c1ccc(C)cc1 (centres unmarked) [27 (mix), N-(2-methoxybenzyl)-N-{1-(4-methylphenyl)-2-oxo-2-[(tetrahydrofuran-2-ylmethyl)amino]ethyl}cyclopropanecarboxamide]"
5,3000 nM,"COc1ccccc1CN(C(=O)c1ccc([N+](=O)[O-])cc1)C(C(=O)NCC1CCCO1)c1ccc(C)cc1 (centres unmarked) [28 (mix), N-(2-methoxybenzyl)-4-nitro-N-{1-(4-methylphenyl)-2-oxo-2-[(tetrahydrofuran-2-ylmethyl)amino]ethyl}benzamide]"
6,2100 nM,"COc1ccccc1CN(C(=O)Cc1ccc(N(C)C)cc1)C(C(=O)NCC1CCCO1)c1ccc(C)cc1 (centres unmarked) [29 (mix), 2-[(4-dimethylamino)phenyl]-N-(2-methoxybenzyl)-N-{1-(4-methylphenyl)-2-oxo-2-[(tetrahydrofuran-2-ylmethyl)amino]ethyl}acetamide]"
7,68 nM,"COc1ccccc1CN(C(=O)Cn1ccnn1)C(C(=O)NCC1CCCO1)c1ccc(C)cc1 (centres unmarked) [30 (mix), N-(2-methoxybenzyl)-N-{1-(4-methylphenyl)-2-oxo-2-[(tetrahydrofuran-2-ylmethyl)amino]ethyl}-2-(1H-1,2,3-triazol-1-yl)acetamide]"
8,268 nM,"COc1ccccc1CN(C(=O)Cn1ccc2ccccc21)C(C(=O)NCC1CCCO1)c1ccc(C)cc1 (centres unmarked) [31 (mix), 2-(1H-indol-1-yl)-N-(2-methoxybenzyl)-N-{1-(4-methylphenyl)-2-oxo-2-[(tetrahydrofuran-2-ylmethyl)amino]ethyl}acetamide]"
9,800 nM,"Cc1ccc(C(C(=O)NCC2CCCO2)N(CC2CCCC2)C(=O)Cc2c[nH]cn2)cc1 (centres unmarked) [32 (mix), N-(cyclopentylmethyl)-2-(1H-imidazol-4-yl)-N-{1-(4-methylphenyl)-2-oxo-2-[(tetrahydrofuran-2-ylmethyl)amino]ethyl}acetamide]"
10,1700 nM,"Cc1ccc(C(C(=O)NCC2CCCO2)N(CC2CCCCC2)C(=O)Cc2ccccc2C)cc1 (centres unmarked) [33 (mix), N-(cyclohexylmethyl)-2-(2-methylphenyl)-N-{1-(4-methylphenyl)-2-oxo-2-[(tetrahydrofuran-2-ylmethyl)amino]ethyl}acetamide]"
11,1100 nM,"Cc1ccc(C(C(=O)NCC2CCCO2)N(CC2CCCCC2)C(=O)CN(C)C)cc1 (centres unmarked) [34 (mix), N-(cyclohexylmethyl)-2-(dimethylamino)-N-{1-(4-methylphenyl)-2-oxo-2-[(tetrahydrofuran-2-ylmethyl)amino]ethyl}acetamide]"
12,1700 nM,"Cc1ccc(C(C(=O)NCC2CCCO2)N(Cc2cccc(C)c2)C(=O)CN(C)C)cc1 (centres unmarked) [35 (mix), 2-(dimethylamino)-N-(3-methylbenzyl)-N-{1-(4-methylphenyl)-2-oxo-2-[(tetrahydrofuran-2-ylmethyl)amino]ethyl}acetamide]"
13,13800 nM,"Cc1ccc(C(C(=O)NCC2CCCO2)N(CC2CCCCC2)C(=O)Cc2c[nH]cn2)cc1 (centres unmarked) [36 (mix), N-(cyclohexylmethyl)-2-(1H-imidazol-4-yl)-N-{1-(4-methylphenyl)-2-oxo-2-[(tetrahydrofuran-2-ylmethyl)amino]ethyl}acetamide]"
14,6200 nM,"Cc1ccc(C(C(=O)NCC2CCCO2)N(CC2CCCCC2)C(=O)Cc2ccccc2)cc1 (centres unmarked) [37 (mix), N-(cyclohexylmethyl)-2-phenyl-N-{1-(4-methylphenyl)-2-oxo-2-[(tetrahydrofuran-2-ylmethyl)amino]ethyl}acetamide]"
15,12700 nM,"Cc1ccc(C(C(=O)NCC2CCCO2)N(Cc2cccc(C)c2)C(=O)C2CC2C)cc1 (centres unmarked) [38 (mix), 2-methyl-N-(3-methylbenzyl)-N-{1-(4-methylphenyl)-2-oxo-2-[(tetrahydrofuran-2-ylmethyl)amino]ethyl}cyclopropanecarboxamide]"
16,1200 nM,"Cc1ccc(C(C(=O)NCC2CCCO2)N(Cc2csc3ccccc23)C(=O)CN(C)C)cc1 (centres unmarked) [39 (mix), N-(1-benzothiophen-3-ylmethyl)-2-(dimethylamino)-N-{1-(4-methylphenyl)-2-oxo-2-[(tetrahydrofuran-2-ylmethyl)amino]ethyl}acetamide]"
